The NIST ThermoML archive (doi:10.1021/je049671t)
± gives the expanded uncertainty stated by the source.

Test: xn = mol fraction of the nth substance listed
Conditions: Liquid, Vibrating tube method

CCCC [butane] + CCC
mass density (300 K, 4513.8 kPa, x2 = 0.75): 523.55 ± 0.34 kg/m3 | mass density (300 K, 4514.7 kPa, x2 = 0.5): 543.88 ± 0.33 kg/m3 | mass density (300 K, 4953.2 kPa, x2 = 0.5): 544.76 ± 0.34 kg/m3 | mass density (300 K, 5016.7 kPa, x2 = 0.75): 524.69 ± 0.35 kg/m3 | mass density (300 K, 5031 kPa, x2 = 0.25): 562.9 ± 0.33 kg/m3 | mass density (300 K, 5451.1 kPa, x2 = 0.25): 563.65 ± 0.33 kg/m3 | mass density (300 K, 5474.7 kPa, x2 = 0.75): 525.74 ± 0.35 kg/m3 | mass density (300 K, 5508.8 kPa, x2 = 0.5): 545.86 ± 0.34 kg/m3 | mass density (300 K, 5929.8 kPa, x2 = 0.25): 564.5 ± 0.34 kg/m3 | mass density (300 K, 5950 kPa, x2 = 0.75): 526.78 ± 0.36 kg/m3 | mass density (300 K, 5953 kPa, x2 = 0.5): 546.73 ± 0.35 kg/m3 | mass density (300 K, 6466.1 kPa, x2 = 0.5): 547.72 ± 0.36 kg/m3 | mass density (300 K, 6473.6 kPa, x2 = 0.75): 527.92 ± 0.36 kg/m3 | mass density (300 K, 6488.8 kPa, x2 = 0.25): 565.48 ± 0.35 kg/m3 | mass density (300 K, 6959.9 kPa, x2 = 0.5): 548.68 ± 0.36 kg/m3 | mass density (300 K, 7015.2 kPa, x2 = 0.75): 529.08 ± 0.37 kg/m3 | mass density (300 K, 7074.7 kPa, x2 = 0.25): 566.49 ± 0.35 kg/m3 | mass density (300 K, x2 = 0.25): 554.07 ± 0.27 kg/m3 | mass density (300 K, x2 = 0.5): 535.4 ± 0.28 kg/m3 | mass density (300 K, x2 = 0.75): 514.2 ± 0.28 kg/m3 | mass density (320 K, 997.4 kPa, x2 = 0.25): 529.12 ± 0.29 kg/m3 | mass density (320 K, 1482.2 kPa, x2 = 0.25): 530.41 ± 0.3 kg/m3 | mass density (320 K, 1496.3 kPa, x2 = 0.5): 509.2 ± 0.31 kg/m3 | mass density (320 K, 1509.8 kPa, x2 = 0.75): 484.66 ± 0.3 kg/m3 | mass density (320 K, 1996.7 kPa, x2 = 0.25): 531.76 ± 0.3 kg/m3 | mass density (320 K, 2010.3 kPa, x2 = 0.5): 510.79 ± 0.31 kg/m3 | mass density (320 K, 2020.7 kPa, x2 = 0.75): 486.64 ± 0.31 kg/m3 | mass density (320 K, 2497.1 kPa, x2 = 0.75): 488.41 ± 0.32 kg/m3 | mass density (320 K, 2502.8 kPa, x2 = 0.25): 533.06 ± 0.31 kg/m3 | mass density (320 K, 2516.5 kPa, x2 = 0.5): 512.32 ± 0.32 kg/m3 | mass density (320 K, 2999.8 kPa, x2 = 0.5): 513.74 ± 0.32 kg/m3 | mass density (320 K, 3011.6 kPa, x2 = 0.75): 490.26 ± 0.32 kg/m3 | mass density (320 K, 3012.6 kPa, x2 = 0.25): 534.34 ± 0.32 kg/m3 | mass density (320 K, 3459.5 kPa, x2 = 0.75): 491.82 ± 0.33 kg/m3 | mass density (320 K, 3509.2 kPa, x2 = 0.5): 515.19 ± 0.33 kg/m3 | mass density (320 K, 3516.7 kPa, x2 = 0.25): 535.58 ± 0.32 kg/m3 | mass density (320 K, 4012.1 kPa, x2 = 0.25): 536.73 ± 0.33 kg/m3 | mass density (320 K, 4013.7 kPa, x2 = 0.75): 493.68 ± 0.34 kg/m3 | mass density (320 K, 4017.1 kPa, x2 = 0.5): 516.6 ± 0.34 kg/m3 | mass density (320 K, 4472 kPa, x2 = 0.25): 537.8 ± 0.33 kg/m3 | mass density (320 K, 4497.4 kPa, x2 = 0.5): 517.9 ± 0.34 kg/m3 | mass density (320 K, 4512.7 kPa, x2 = 0.75): 495.29 ± 0.35 kg/m3 | mass density (320 K, 4988.6 kPa, x2 = 0.5): 519.21 ± 0.35 kg/m3 | mass density (320 K, 4989.7 kPa, x2 = 0.25): 539 ± 0.34 kg/m3 | mass density (320 K, 5019.1 kPa, x2 = 0.75): 496.89 ± 0.36 kg/m3 | mass density (320 K, 5490.6 kPa, x2 = 0.5): 520.51 ± 0.36 kg/m3 | mass density (320 K, 5501 kPa, x2 = 0.25): 540.19 ± 0.35 kg/m3 | mass density (320 K, 5520.4 kPa, x2 = 0.75): 498.43 ± 0.36 kg/m3 | mass density (320 K, 5989.8 kPa, x2 = 0.5): 521.77 ± 0.36 kg/m3 | mass density (320 K, 6001.7 kPa, x2 = 0.75): 499.85 ± 0.37 kg/m3 | mass density (320 K, 6013.9 kPa, x2 = 0.25): 541.36 ± 0.35 kg/m3 | mass density (320 K, 6479.5 kPa, x2 = 0.5): 522.98 ± 0.37 kg/m3 | mass density (320 K, 6522.9 kPa, x2 = 0.75): 501.37 ± 0.38 kg/m3 | mass density (320 K, 6524.6 kPa, x2 = 0.25): 542.42 ± 0.36 kg/m3 | mass density (320 K, 7003.8 kPa, x2 = 0.25): 543.49 ± 0.36 kg/m3 | mass density (320 K, 7020.7 kPa, x2 = 0.75): 502.78 ± 0.38 kg/m3 | mass density (320 K, 7116.4 kPa, x2 = 0.5): 524.52 ± 0.38 kg/m3 | mass density (320 K, x2 = 0.25): 528.42 ± 0.28 kg/m3 | mass density (320 K, x2 = 0.5): 507.52 ± 0.29 kg/m3 | mass density (320 K, x2 = 0.75): 483.71 ± 0.28 kg/m3 | mass density (340 K, 1485.3 kPa, x2 = 0.25): 500.98 ± 0.31 kg/m3 | mass density (340 K, 1990.9 kPa, x2 = 0.25): 502.87 ± 0.31 kg/m3 | mass density (340 K, 1994.9 kPa, x2 = 0.75): 448.06 ± 0.3 kg/m3 | mass density (340 K, 2013.6 kPa, x2 = 0.5): 478.5 ± 0.31 kg/m3 | mass density (340 K, 2454.3 kPa, x2 = 0.25): 504.54 ± 0.32 kg/m3 | mass density (340 K, 2508.8 kPa, x2 = 0.5): 480.75 ± 0.32 kg/m3 | mass density (340 K, 2527.2 kPa, x2 = 0.75): 451.44 ± 0.31 kg/m3 | mass density (340 K, 2997.6 kPa, x2 = 0.25): 506.44 ± 0.33 kg/m3 | mass density (340 K, 3013.6 kPa, x2 = 0.5): 482.96 ± 0.33 kg/m3 | mass density (340 K, 3018 kPa, x2 = 0.75): 454.37 ± 0.31 kg/m3 | mass density (340 K, 3488 kPa, x2 = 0.25): 508.09 ± 0.33 kg/m3 | mass density (340 K, 3515.5 kPa, x2 = 0.5): 485.04 ± 0.33 kg/m3 | mass density (340 K, 3542.6 kPa, x2 = 0.75): 457.27 ± 0.32 kg/m3 | mass density (340 K, 3984.5 kPa, x2 = 0.25): 509.71 ± 0.34 kg/m3 | mass density (340 K, 4016.2 kPa, x2 = 0.5): 487.04 ± 0.34 kg/m3 | mass density (340 K, 4021.6 kPa, x2 = 0.75): 459.81 ± 0.33 kg/m3 | mass density (340 K, 4469.1 kPa, x2 = 0.75): 462.01 ± 0.33 kg/m3
